Source: patent US20100286247A1, “Methods of Protection from Oxidative Stress” (Trustees of Boston University, priority 2005, published 2010)
{P} = phosphate

What was measured:
GPX protein = test: Western blot analysis of antioxidant enzymes: GPX protein; format: cell-based, human; settings: 40 μM, within several hours, up to 168 hours
Method: (§1) Cell lysates were harvested at various intervals after T-oligo treatment in harvest buffer containing 0.25 M Tris HCl (pH 7.5), 0.375 M NaCl, 2.5% sodium deoxycholate, 1% Triton X-100, 25 mM MgCl2, 0.1 mg/ml aprotinin (Sigma, St. Louis, Mo.) and 1 mM phenylmethyl sulfonyl flouride (PMSF) (Sigma). Samples were sheared through a fine needle syringe, sonicated, centrifuged and the supernatant was isolated. Total cellular protein concentrations were determined spectrophotometrically with the Bio-Rad protein assay (Bio-Rad Laboratories, Inc, Hercules, Calif.). Equal amounts of total protein from each sample (35-65 μg) were separated by 10-15% polyacrylamide gel electrophoresis, and transferred to nitrocellulose membranes. […]
(§2) Membranes were reacted with antibodies diluted in Tris-based buffer with nonfat milk powder as a blocking agent. […] Antibody binding was detected with electrochemical luminescence (ECL kit, NEN Life Science Products, Inc.) and exposure to XAR film (Eastman Kodak Co.).
(§3) The levels of superoxide dismutase 1 (SOD1), superoxide dismutase 2 (SOD2), catalase (Cat) and glutathione peroxidase (GPX) were determined in newborn fibroblasts at different time points after treatment with 40 μM of T-oligo in comparison with cells treated either with 40 μM of control complementary oligo pCTAACCCTAAC (SEQ ID NO: 22) or diluent. […]

SOD1 protein = test: Western blot analysis of antioxidant enzymes: SOD1 protein; format: cell-based, human; settings: 40 μM, within several hours, up to 168 hours
Method: as §1, §2, §3

human dermal fibroblasts = settings: treatment for 7 days, Li et al.; cited from earlier work
[1] = system: extracellular H2O2 from newborn fibroblasts; test: Extracellular hydrogen peroxide generation assay (horseradish peroxidase); format: cell-based, human; settings: 100 μM, two days treatment
Method: This assay was described by Ruch et al. for measurement of H2O2 production by macrophages and neutrophils^93 and modified for cultured cytokine-stimulated human lung fibroblasts by Thannickal et al.^94 Briefly, it utilizes horseradish peroxidase (HRP) to catalyze H2O2-dependent dimerization of tyrosine in homovanillic acid (HVA), where the H2O2 is the extracellular fraction of H2O2 produced by stimulated cells. Fibroblasts were seeded at 0.5×10^4 cells/cm^2 and treated the following day with diluent, 100 μM pTT, 100 μM pAA, 40 μM TO or 40 μM TOC1 for two days. These doses were determined in previous studies to be the optimal effective doses to achieve p53 induction and cell cycle arrest in fibroblasts within the parameters used in these investigations (cell seeding density and time of treatment).^13,142 An assay medium consisting of sterile Hanks' Balanced Salt Solution (HBSS), HRP (5 U/ml) and HVA ([…]) was added to cells after removal of the T-oligo-supplemented medium. […] Each sample was fluorometrically analyzed by excitation of the dimerized tyrosine product at 323 nm with emission measured at 423 nm (Perkin-Elmer LS-5B Luminescence Spectrometer). The same cells were then harvested and counted by Coulter Counter. […] Using the cell count results, H2O2 production was expressed as a function of time and cell number (pmol/min/million cells). […]

Substance | GPX protein level (GPX protein) | SOD1 protein level (SOD1 protein) | cells expressing senescence-associated-β-galactosidase after prolonged treatment (human dermal fibroblasts) | extracellular H2O2 production [1]
pGTTAGGGTTAG (5' {P}, sugars by position and backbone not given here) [TO] | induced | induced | over 60% | 
5′-phosphorylated thymidine dinucleotides [pTT] |  |  |  | does not yield extracellular H2O2
